Reference: patent US7767854B2, “N-substituted phenylacetamide derivative and pharmaceutical composition containing the same” (Dainippon Sumitomo Pharma Co., Ltd., priority 2005, dated 2010)
“Also recorded” adds a separate entry of the source.

Key:
[1] = tested on: male Std: Wistar rats; test: Pain test by plantar thermal stimuli (plantar test); assay type: in vivo; conditions: Rattus norvegicus, 4 h, 50 μl of 0.03% (W/V) solution i.pl. into right hind-paw; 4 hours after administration; cut-off 25 seconds; read-out: % MPE (percent maximum possible effect, withdrawal latency)
Description: Experiment 1: Pain Test by Plantar Thermal Stimuli (Plantar Test)
In the present experiment, the analgesic effect of the compounds of the invention was evaluated by the measurements of withdrawal latency to noxious thermal stimuli, according to the methods of Hargreaves, et al., [Pain, 32, 77-88 (1988)] and Field, et al., [J. Pharmacol. Exp. Ther., 282, 1242-1246 (1997)].
In detail, the experiment was carried out using male Std: Wistar rats (4 rats/group; body weight, 170-220 g) and a plantar test device (Model 7370, Ugo Basile) with infrared beam as a heat source. The rat was put into an experimental cage that is an acrylic box whose bottom is made of glass and was habituated therein. Then, the infrared beam was radiated to the plantar surface of right hind-paw thereof through the floor glass, and the withdrawal latency was measured every 5 minutes, 3 times. The intension of the infrared beam was adjusted so that the pre-drug administration latency was about 10 seconds. The cut-off time was set at 25 seconds in order to prevent a paw burn. The average of the latencies was calculated, and then it was defined as the value of the pre-drug administration latency of the test compound.
Next day, 50 μl of each solution of the test compounds [the compounds of the invention, the compounds of the comparative Examples and capsaicin (Sigma, U.S.A.)] or 50 μl of vehicle solvent (reference) was given to a right hind-paw of the rat by intraplantar injection (i. pl.) using a micro-syringe. The test compound was dissolved in a saline solution containing 10% Tween 80 (Sigma, U.S.A) and 10% ethanol to give a 0.03% (W/V) solution. The saline solution containing 10% Tween 80 and 10% ethanol was used as reference. Four hours after i.pl. administration of each the test compound or the reference to the rats, the experiment mentioned above was carried out, and then the post-drug administration latency was measured. The analgesic effects thereof were calculated with the following formula, which was known as a percent maximum possible effect (% MPE). % MPE=[(the value of post-drug latency−the value of pre-drug latency)/(25*−the value of pre-drug latency)]×100 *: cut-off time

[2] = tested on: female CBA/JN mice; test: Skin sensitization test (Local Lymph Node Assay with BrdU); assay type: in vivo, mouse; conditions: 1 and 3% solutions in DMF on both auricles, 3 days
Description: Experiment 4: Skin Sensitization Test (Local Lymph Node Assay)
The purpose of the present experiment is to investigate if each administered compound of the invention can induce allergic contact dermatitis. In detail, the skin sensitization effect of the compounds of the invention was examined using BrdU (bromodeoxyuridine) by LLNA (Local Lymph Node Assay).
In more detail, the test was carried out according to the method by Suda, A. et al. (Local lymph node assay with non-radioisotope alternative endpoints. J. Toxicol. Sci., 27(3):205-218, 2002). Namely, the compounds of the invention were dissolved in DMF (N,N-dimethylformamide) to prepare 1 and 3% solutions, which were applied to both auricles of female CBA/JN mice aged 9 weeks for consecutive 3 days (1st day to 3rd day)(25 μl/one-side ear, once a day)
As positive control drugs, DNCB (dinitrochlorobenzene, a potently sensitizing drug) and HCA (α-hexylcinnamaldehyde, a weakly sensitizing drug) were used. After the final application was finished (on 3rd day), ALZET Osmotic Pump containing 100 μl of 200 mg/mL BrdU (releasing rate: 0.5 μl/hour) was implanted into the ventral skin under pentobarbital anesthesia, and BrdU was exposed sustainedly. On 9th day from starting day to apply the compounds of the invention, the animals were euthanized by cervical dislocation, and parotid lymph nodes of both their ears were taken out. The nodes were weighed and homogenized in PBS to prepare a single cell suspension which was measured by a blood test device: ADVIA (Bayer) to count the number of the cells. Next, the cells were immunofluorescently stained with FITC-labeled anti-BrdU antibody using a BrdU Flow Kit (BD Biosciences), which were measured and analyzed using a flow cytometer: FACS Calibur (Becton Dickinson) to give BrdU-positive cell percentage. And then, the BrdU-positive cell percentage was multiplied by the number of the node cells to give the number of the BrdU-positive cells. Additionally, on each parameter, the average value for the test compound group was divided by the average value for the reference (solvent) group to give a stimulation Index (SI). We judged that the compound had skin sensitization activity when the SI of BrdU-positive cell number was 2 or more, in principle.

[3] = tested on: Slc: Hartley male guinea-pigs; test: Skin sensitization test (Adjuvant and Patch Test, allergenic potency); assay type: in vivo, guinea-pig; conditions: 1% solution patches, FCA pre-treatment, observed 24 and 48 hours after initiation
Description: Experiment 3. Skin Sensitization Test (Evaluation of Allergenic Potency)
The purpose of the present experiment is to investigate if each administered compound of the invention may induce allergic contact dermatitis. In detail, the test was carried out using Freund's complete adjuvant (FCA) according to the Adjuvant and Patch Test [Sato, et al., Contact Dermatitis, 7, 225-237 (1981)], which is described in “Description of Guideline on Nonclinical Studies of Drugs (Iyakuhin Hirinshou-shiken Guideline Kaisetsu), Chapter 8, P.72-76, Skin sensitization test” [edited by the Ministry of Health and Welfare, Pharmaceutical Affairs Bureau, Yakuji-Nippou-sha (1997)]. Slc: Hartley male guinea-pigs were used for the test. As a test compound, each the compound of the invention and DNCB (1-chloro-2,4-dinitrobenzene) as a positive control drug were dissolved in 70% ethanol/water solution and were administered to the animals. The 70% ethanol/water solution was used as vehicle solvent (reference).
In detail, after FCA emulsion was intradermally administered around the shaved back part of the guinea-pig as a pre-treatment, each patch containing 1% test compound solution or reference (solvent) solution was closedly attached once a day for consecutive 3 days in total (Primary Sensitization). On 7th day after the Primary Sensitization, 10% sodium lauryl sulfate ointment was openly applied at the same part for 24 hours, and then each patch containing 1% test compound solution or reference (solvent) solution was closedly attached again for 48 hours (Second Sensitization). 14 days after the Second Sensitization treatment, each test compound (maximum concentration: 1%) was applied for 24 hours using patch in the same manner (initiation). 24 and 48 hours after the application, the reaction (erythema, edema) on the applied skin part was observed and was scored (0-3) based on the criteria of Magnusson and Kligman [J. Invest. Dermatol., 52, 268-276 (1969)], and then the degree of skin sensitization induced by each of compound was evaluated.

[4] = Analgesic effect of prior-art compounds (background statement)
[5] = cited from earlier work
[6] = tested on: male Std:ddY mice; test: Study for irritancy (eye-wiping test); assay type: in vivo, mouse
Description: Experiment 2: Study for Irritancy (Eye-Wiping Test)
In this experiment, we examined the irritancy of the compounds of the invention. The experiment was carried out according to Jancso, et al., [Acta. Physiol. Acad. Sci. Hung., 19, 113-131 (1961)] and Szallasi, et al., [Brit. J. Pharmacol., 119, 283-290 (1996)]. In more detail, the compounds of the invention were dissolved in a physiological saline solution containing 5% Tween 80 and 5% ethanol to prepare each 2 different concentrations (2 concentrations: 10 and 30 μg/ml). One drop of each the solution was dropped into an eye of male Std:ddY mice (5 […]/group; body weight, 20-30 g). The protective wiping behaviors with its front paws were counted for every one minute from 0 to 5 minutes after the administration. Then, the average counts in each one minute were calculated, and the maximum value among the averages was defined as the representative value. Using the saline solution containing […] and 5% ethanol as a vehicle solvent, the test mentioned above was also carried out.

Row | Structure (SMILES) | change in vivo at 300 µg/mL [1] | skin sensitization (SI of BrdU-positive cell number) [2] | skin sensitization (erythema, edema score) [3] | other results
1 | CCCC=C1CCC(NC(=O)Cc2ccc(O)c(OC)c2)CC1 (stereo not shown) [Example 10, N-(4-butylidenecyclohexyl)-2-(4-hydroxy-3-methoxyphenyl)acetamide] | 89.4% | weak skin sensitization |  | 
2 | CCCCC1CCC(NC(=O)Cc2ccc(O)c(OC)c2)CC1 (stereo not shown) [Example 2, N-(4-butylcyclohexyl)-2-(4-hydroxy-3-methoxyphenyl)acetamide] | 81.4% | weak skin sensitization | no skin sensitization | 
3 | CCCCC[C@H]1CC[C@@H](NC(=O)Cc2ccc(O)c(OC)c2)CC1 [Example 8] | 88.4% | weak skin sensitization |  | 
4 | CCCC=C1CCC(NC(=O)Cc2ccc(O)c(OC)c2)CC1 (single isomer, unassigned; (-)) [Example 46, (−)-N-(4-butylidenecyclohexyl)-2-(4-hydroxy-3-methoxyphenyl)acetamide] |  |  | no skin sensitization | 
5 | CCCCC1=CCC(NC(=O)Cc2ccc(O)c(OC)c2)CC1 (single isomer, unassigned; (-)) [Example 44, (−)-N-(4-butyl-3-cyclohexenyl)-2-(4-hydroxy-3-methoxyphenyl)acetamide] |  |  | no skin sensitization | 
6 | COc1cc(CC(=O)NC2CCCCC2)ccc1O [drawing 3] |  |  |  | analgesic effect [4]: little analgesic effect; irritancy ([5]; Arzneim.-Forsch., 25, 1877 (1975)): a little lower irritancy than capsaicin; stimulatory effect and desensitization ([5]; Arzneim.-Forsch., 26, 33 (1976)): strong stimulatory; also recorded: weak desensitization
7 | CC/C=C\[C@H]1CC[C@H](NC(=O)Cc2ccc(O)c(OC)c2)CC1 [Example 16] | 94.1% | weak skin sensitization | no skin sensitization | 
8 | CCCCCO[C@H]1CC[C@H](NC(=O)Cc2ccc(O)c(OC)c2)CC1 [Example 36] | 50.5% | weak skin sensitization |  | 
9 | COc1cc(CC(=O)N[C@H]2CC[C@H](CCCC(C)C)CC2)ccc1O [Example 27] | 89.5% | weak skin sensitization | no skin sensitization | 
10 | CCCC=C1CCC(NC(=O)Cc2ccc(O)c(OC)c2)CC1 (single isomer, unassigned; (+)) [Example 45, (+)-N-(4-butylidenecyclohexyl)-2-(4-hydroxy-3-methoxyphenyl)acetamide] | 73.9% |  | no skin sensitization | 
11 | CCCCC1=CCC(NC(=O)Cc2ccc(O)c(OC)c2)CC1 (single isomer, unassigned; (+)) [Example 43, (+)-N-(4-butyl-3-cyclohexenyl)-2-(4-hydroxy-3-methoxyphenyl)acetamide] |  |  | no skin sensitization | 
12 | COc1cc(CC(=O)N[C@H]2CC[C@H](CC=C(C)C)CC2)ccc1O [Example 42, 2-(4-hydroxy-3-methoxyphenyl)-N-[trans-4-(3-methyl-2-butenyl)cyclohexyl]acetamide] | 85% | weak skin sensitization |  | 
13 | CCCCC1=CCC(NC(=O)Cc2ccc(O)c(OC)c2)CC1 (stereo not shown) [Example 1, N-(4-butyl-3-cyclohexenyl)-2-(4-hydroxy-3-methoxyphenyl)acetamide] | 69.9% | weak skin sensitization | no skin sensitization | 
14 | COc1cc(CC(=O)N[C@H]2CC[C@H](CCC(C)C)CC2)ccc1O [Example 26, 2-(4-hydroxy-3-methoxyphenyl)-N-[trans-4-(3-methylbutyl)cyclohexyl]acetamide] | 96.3% | weak skin sensitization |  | 
15 | COc1cc(CNC(=O)CCCC/C=C/C(C)C)ccc1O [Capsaicin, (E)-8-methyl-N-vanillyl-6-nonenamide] | 39.2% |  |  | Representative value of counts of protective wiping behaviors (max. counts, counts/min) ([6]; 10 μg/ml, one drop into eye, 0 to 5 minutes): 20.0 counts/min; irritancy (protective wiping behaviors, in words) ([6]; capsaicin 10 μg/ml, Example compounds up to 30 μg/ml): frequent protective wiping behaviors
16 | COc1cc(CC(=O)NC2CCC(C)CC2)ccc1O (stereo not shown) |  |  |  | analgesic effect [4]: little analgesic effect
17 | C/C=C\[C@H]1CC[C@H](NC(=O)Cc2ccc(O)c(OC)c2)CC1 [Example 22] | 54.7% | weak skin sensitization | no skin sensitization | 
